# How the values were obtained:
# [1] = molecular target: T1, Raf-RBD / K-Ras(G12D)·GppNHp (Homo sapiens, UniProt P01116, G12D); test: Biolayer interferometry, Raf-RBD binding of the K-Ras(G12D)·GppNHp adduct; conditions: compared to unmodified K-Ras(G12D)·GppNHp
# T1 construct: human K-Ras (G12D, aa 1-169); 6xHis tag + TEV cleavage site (N); made in house; host or cells: E. coli BL21(DE3) for K-Ras
# K-Ras(G13D) = molecular target: T2, K-Ras(G13D) (Homo sapiens, UniProt P01116, G13D); test: Covalent modification of recombinant K-Ras(G13D) by whole-protein mass spectrometry; type: binding; conditions: 10 μM, 23° C., after 1 h
# T2 construct: human K-Ras (G13D, aa 1-169); 6xHis tag + TEV cleavage site (N, cleaved yes); made in house; host or cells: E. coli BL21(DE3)
# Experimental: (§1) Test compounds were prepared as 100× stock solutions in DMSO. K-Ras proteins were diluted with SEC Buffer (20 mM HEPES 7.5, 150 mM NaCl, 1 mM MgCl2) to 400 nM or 1 μM. In a typical reaction, 0.5 μL 100× compound stock was mixed with 50 μL diluted K-Ras protein, and the resulting mixture was incubated for the desired amount of time. The extent of modification was assessed by electrospray mass spectrometry using a Waters Xevo G2-XS system equipped with an Acquity UPLC BEH C4 1.7 μm column. The mobile phase was a linear gradient of 5-95% acetonitrile/water+0.05% formic acid. For kinetic measurements, a 2× compound solution was first prepared in SEC Buffer, which was then mixed with 400 nM K-Ras(G12D) protein at 1:1 (v/v) ratio. Injection time stamps were used to calculate elapsed time.
# K-Ras G12D [2] = molecular target: T3, K-Ras G12D (Homo sapiens, UniProt P01116, G12D); test: Stability of the adduct between K-Ras(G12D) and the compound
# T3 construct: human K-Ras (G12D, aa 1-169); 6xHis tag + TEV cleavage site (N, cleaved yes); made in house; host or cells: E. coli BL21(DE3)
# K-Ras G12E = molecular target: T4, K-Ras G12E (Homo sapiens, UniProt P01116, G12E); test: Covalent modification of recombinant K-Ras(G12E) by whole-protein mass spectrometry; type: binding; conditions: 10 μM, 23° C.
# T4 construct: human K-Ras (G12E, aa 1-169); 6xHis tag + TEV cleavage site (N, cleaved yes); made in house; host or cells: E. coli BL21(DE3)
# Experimental: as §1
# [3] = molecular target: T5, interaction between Raf-RBD and wildtype K-Ras (Homo sapiens, UniProt P01116); test: Time-resolved fluorescence energy transfer assay, Raf-RBD and wildtype K-Ras; type: biochemical
# T5 construct: human K-Ras (wildtype, aa 1-169); 6xHis tag + TEV cleavage site (N); made in house; host or cells: E. coli BL21(DE3) for K-Ras
# K-Ras(G12S) = K-Ras(G12S) (Homo sapiens, UniProt P01116, G12S); test: Covalent modification of recombinant K-Ras(G12S) by whole-protein mass spectrometry; type: binding; set-up: human K-Ras (G12S, aa 1-169); 6xHis tag + TEV cleavage site (N, cleaved yes); made in house; host or cells: E. coli BL21(DE3); conditions: 10 μM compound, 23° C.
# Outline: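 Recombinant K-Ras diluted to 400 nM or 1 μM in 20 mM HEPES pH 7.5, 150 mM NaCl, 1 mM MgCl2 and incubated with compound added from 100× DMSO stock. Modification extent measured by electrospray whole-protein mass spectrometry; kinetics used 1:1 mixing with 400 nM protein and injection time stamps for elapsed time.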
# K-Ras G12D [4] = molecular target: T3, K-Ras G12D; test: Differential scanning fluorimetry of K-Ras(G12D) and its covalent adducts; type: binding
# Experimental: The protein of interest was diluted with SEC Buffer [20 mM HEPES 7.5, 150 mM NaCl, 1 mM MgCl2] to 8 μM. This solution was dispensed into wells of a white 96-well PCR plate in triplicate (25 μL/well). Fluorescence was measured at 0.5-° C. temperature intervals every 30 s from 25° C. to 95° C. on a Bio-Rad CFX96 qPCR system using the FRET setting. Each data set was normalized to the highest fluorescence and the normalized fluorescence reading was plotted against temperature in GraphPad Prism 8.0. Tm values were determined as the temperature(s) corresponding to the maximum(ma) of the first derivative of the curve.
# wild type K-Ras = molecular target: T6, wild type K-Ras (Homo sapiens, UniProt P01116); test: Covalent modification of recombinant wild-type K-Ras by whole-protein mass spectrometry; type: binding; conditions: 10 μM, 23° C., after 1 h
# T6 construct: human K-Ras (wildtype, aa 1-169); 6xHis tag + TEV cleavage site (N, cleaved yes); made in house; host or cells: E. coli BL21(DE3)
# [5] = molecular target: T7, interaction between Raf-RBD and K-Ras(G12D) (Homo sapiens, UniProt P01116, G12D); test: Time-resolved fluorescence energy transfer assay, Raf-RBD and K-Ras(G12D); type: biochemical; conditions: dose-dependent
# T7 construct: human K-Ras (G12D, aa 1-169); 6xHis tag + TEV cleavage site (N); made in house; host or cells: E. coli BL21(DE3) for K-Ras
# K-Ras G12D [6] = molecular target: T3, K-Ras G12D; test: Covalent modification of recombinant K-Ras(G12D) by whole-protein mass spectrometry; type: binding; conditions: 10 μM, 23° C.
# Experimental: as §1
# [7] = test system: KRAS G12D mutation cancer cell lines; test: Growth inhibition of KRAS G12D cancer cell lines; type: cell-based
# Experimental: Cells were seeded into 96-well white flat bottom plates (1,000 cells/well) (Corning) and incubated overnight. Cells were treated with the indicated compounds in a nine-point threefold dilution series (100 μL final volume) and incubated for 72 h. Cell viability was assessed using a commercial CellTiter-Glo (CTG) luminescence-based assay (Promega). Briefly, the 96-well plates were equilibrated to room temperature before the addition of diluted CTG reagent […] (1:4 CTG reagent:PBS). Plates were placed on an orbital shaker for 30 min before recording luminescence using a Spark 20M (Tecan) plate reader.
smiles,measurement,setting,value
C#Cc1cccc2cccc(-c3ncc4c(N5C[C@H]6CC[C@@H](C5)N6C(=O)C5CC(=O)O5)nc(OCC56CCCN5CCC6)nc4c3F)c12 (mixture of isomers) [Compound 1],binding of the K-Ras(G12D)·GppNHp adduct to Raf-RBD,[1],substantially decreased binding to Raf-RBD
same,modification of K-Ras(G13D)·GDP,K-Ras(G13D),6.5±0.3%
same,stability of the K-Ras(G12D) adduct over pH,K-Ras G12D [2],stable over a range of pH (5.0-8.5)
same,stability of the K-Ras(G12D) adduct with DTT,"K-Ras G12D [2]; 1 mM DTT, 23° C.",did not degrade in the presence of 1 mM DTT
same,reactivity with K-Ras(G12E)·GDP,K-Ras G12E,markedly reduced reactivity
same,interaction between Raf-RBD and wildtype K-Ras,[3],not wildtype K-Ras
same,covalent reaction with K-Ras(G12S)·GDP,K-Ras(G12S),did not react with K-Ras(G12S)·GDP
same,ΔTm of K-Ras(G12D)·GDP on covalent modification,K-Ras G12D [4]; GDP state,+10.3 °C
same,ΔTm of K-Ras(G12D)·GppNHp on covalent modification,K-Ras G12D [4]; GppNHp state,+2.5 °C
same,modification of K-Ras(wildtype)·GDP,wild type K-Ras,no detectable modification
same,interaction between Raf-RBD and K-Ras(G12D),[5],inhibited the interaction between Raf-RBD and K-Ras(G12D)
same,activity against GppNHp-bound K-Ras(G12D),K-Ras G12D [6],also active against the GppNHp-bound K-Ras(G12D)
same,time to full modification of K-Ras(G12D)·GDP,K-Ras G12D [6],less than 15 minutes
same,growth of KRAS G12D cancer cell lines,[7],inhibited growth of KRAS^G12D cancer cell lines

# Reference: US20250059187A1, “COVALENTLY BINDING INHIBITORS OF G12S, G12D AND/OR G12E MUTANTS OF K-RAS GTPASE” (The Regents of the University of California, priority 2021, published 2025)
